Data as given in ChEMBL document CHEMBL5241104, “Reactive metabolites of the anticonvulsant drugs and approaches to minimize the adverse drug reaction” (Eur J Med Chem, 2021).

Key:
Rattus norvegicus [1] = assay: Anticonvulsant activity against maximal electroshock induced seizure in Wistar albino rat assessed as reduction of time spent in flexion phase at 10 mg/kg,ip administrated for 30 mins by electroconvulsive therapy; assay type: functional; set-up: scale not given: the % may be the effect or the level left; details: 0.5 h
Rattus norvegicus [2] = assay: Anticonvulsant activity against maximal electroshock induced seizure in Wistar albino rat assessed as reduction of time spent in clonus phase at 10 mg/kg,ip administrated for 30 mins by electroconvulsive therapy; assay type: functional; set-up: scale not given: the % may be the effect or the level left; details: 0.5 h
Rattus norvegicus [3] = assay: Anticonvulsant activity against maximal electroshock induced seizure in Wistar albino rat assessed as reduction of time spent in extension phase at 10 mg/kg,ip administrated for 30 mins by electroconvulsive therapy; assay type: functional; set-up: scale not given: the % may be the effect or the level left; details: 0.5 h
Rattus norvegicus [4] = assay: Anticonvulsant activity against maximal electroshock induced seizure in Wistar albino rat assessed as reduction of time spent in stupor phase at 10 mg/kg,ip administrated for 30 mins by electroconvulsive therapy; assay type: functional; set-up: scale not given: the % may be the effect or the level left; details: 0.5 h
Mus musculus [5] = assay: Anticonvulsant activity in Swiss albino mouse brain assessed as increase in GABA level at 30 mg/kg,ip measured after 2 hrs of post-administration by spectrophotometric method; assay type: functional
Mus musculus [6] = assay: Anticonvulsant activity in Swiss albino mouse assessed as protection against Sc-PTZ induced seizure at ip administration; assay type: functional
Mus musculus [7] = assay: Anticonvulsant activity in Swiss albino mouse brain assessed as increase in GABA level at 30 mg/kg,ip measured after 7 days of post-administration by spectrophotometric method; assay type: functional; details: time 7 day
Mus musculus [8] = assay: Anticonvulsant activity in Swiss albino mouse assessed as protection against maximal electroshock induced seizure at ip administration; assay type: functional
[9] = Toxicity in Swiss albino mouse assessed as median toxicity dose at ip administration; assay type: organism-based; details: in vivo
[10] = Toxicity in CF-1 mouse assessed as median toxic dose at ip administrated upto 4 hrs; assay type: organism-based; details: in vivo
[11] = Protective index, ratio of TD50 for toxicity in CF-1 mouse assessed as median toxicity dose at ip administration upto 4 hrs by rotorod test to ED50 for anticonvulsant activity in CF-1 mouse assessed as protection against maximal electroshock induced seizure at ip administration upto 4 hrs; assay type: organism-based; details: in vivo, read-out: Ratio TD50/ED50
Mus musculus [12] = assay: Anticonvulsant activity in Albino mouse assessed as protection against maximal electroshock induced seizure at ip administration; assay type: functional
Mus musculus [13] = assay: Anticonvulsant activity in Albino mouse assessed as protection against Sc-PTZ induced seizure at ip administration; assay type: functional
Mus musculus [14] = assay: Anticonvulsant activity in Albino mouse brain assessed as increase in GABA level at 30 to 300 mg/kg,ip by spectrophotometric method; assay type: functional; details: dose 30-300 mg/kg
[15] = Protective index, ratio of TD50 for toxicity in Albino mouse assessed as median neurotoxicity dose at ip administration by rotorod test to ED50 for anticonvulsant activity in Albino mouse assessed as protection against Sc-PTZ induced seizure at ip administration; assay type: organism-based; details: in vivo, read-out: Ratio TD50/ED50
[16] = Protective index, ratio of TD50 for toxicity in Albino mouse assessed as median neurotoxicity dose at ip administration by rotorod test to ED50 for anticonvulsant activity in Albino mouse assessed as protection against maximal electroshock induced seizure at ip administration; assay type: organism-based; details: in vivo, read-out: Ratio TD50/ED50
[17] = Toxicity in Swiss CD-1 mouse assessed as mortality at 100 mg/kg,ip; assay type: organism-based; details: in vivo
Mus musculus [18] = assay: Anticonvulsant activity in mouse assessed as protection against maximal electroshock induced seizure at po administration; assay type: functional
Rattus norvegicus [19] = assay: Anticonvulsant activity in rat assessed as protection against maximal electroshock induced seizure at po administration; assay type: functional
Rattus norvegicus [20] = assay: Anticonvulsant activity in rat assessed as protection against Sc-metrazol induced seizure at po administration; assay type: functional
[21] = Protective index, ratio of TD50 for toxicity in rat assessed as median toxicity dose at po administration by rotorod test to ED50 for anticonvulsant activity in rat assessed as protection against maximal electroshock induced seizure at po administration; assay type: organism-based; details: in vivo, read-out: Ratio TD50/ED50
Mus musculus [22] = assay: Anticonvulsant activity in Swiss albino mouse assessed as protection against Sc-PTZ induced seizure at po administration; assay type: functional
Mus musculus [23] = assay: Anticonvulsant activity in Swiss albino mouse assessed as inhibition of maximal electroshock induced seizure at ip administration; assay type: functional
[24] = Protective index, ratio of TD50 for toxicity in Sc-PTZ induced Swiss albino mouse seizure model assessed as median neurotoxicity dose at po administration by rotorod test to ED50 for anticonvulsant activity in Swiss albino mouse assessed as protection against Sc-PTZ induced seizure at po administration; assay type: organism-based; details: in vivo, read-out: Ratio TD50/ED50
Mus musculus [25] = assay: Anticonvulsant activity in Swiss mouse assessed as protection against Sc-PTZ induced seizure at ip administration; assay type: functional
Mus musculus [26] = assay: Anticonvulsant activity in Albino mouse assessed as protection against maximal electroshock induced seizure at ip administration for 30 mins; assay type: functional; details: 0.5 h
Rattus norvegicus [27] = assay: Anticonvulsant activity in Wistar rat assessed as protection against maximal electroshock induced seizure at po administration for 60 mins; assay type: functional; details: 1 h
Rattus norvegicus [28] = assay: Anticonvulsant activity against maximal electroshock induced seizure in Wistar rat assessed as reduction of time spent in extension phase at 50 mg/kg,po administration; assay type: functional
Mus musculus [29] = assay: Anticonvulsant activity in mouse assessed as inhibition of maximal electroshock induced seizure at 200 mg/kg,po administration for 120 mins; assay type: functional; details: 2 h
[30] = Toxicity in Swiss albino mouse assessed as lethality at 30 mg/kg,ip; assay type: organism-based; details: in vivo, read-out: Activity

O=C1/C(=N\c2nnc(-c3cccc(Cl)c3Cl)c(/N=C3\C(=O)N(CN4CCOCC4)c4ccc(Cl)cc43)n2)c2cc(Cl)ccc2N1CN1CCOCC1
Activity (Rattus norvegicus [1]): 30.39%
Activity (Rattus norvegicus [2]): 40.55%
Activity (Rattus norvegicus [3]): 48.95%
Activity (Rattus norvegicus [4]): 34.16%

COc1cc(C2CC(c3ccc(O)cc3)=NC(=S)N2C2=NC(=O)NNC2)ccc1O (centres undefined)
Activity (Mus musculus [5]): 86.17 µg
ED50 (Mus musculus [6]): 293 mg/kg
Activity (Mus musculus [7]): 91.47 µg
ED50 (Mus musculus [8]): 29.4 mg/kg
TD50 [9]: 412 mg/kg

COC(=O)C1C(=O)C=C(Nc2cc(C)on2)CC1C (centres undefined)
TD50 at 4 h [10]: > 500 mg/kg
selectivity ratio at 4 h [11]: > 7.3

CN(C)c1ccc(/C=N/Nc2nnc(-c3ccccc3)nc2Cc2cccc(Cl)c2)cc1
ED50 (Mus musculus [12]): 54.3 mg/kg
ED50 (Mus musculus [13]): 92 mg/kg
Activity (Mus musculus [14]): 39.7 mg
selectivity ratio [15]: 4.73
selectivity ratio [16]: 8.01

COc1ccccc1N1CCN(CCCN2CCCC2=O)CC1
mortality [17]: 25%

CC1(C)C(C(=O)NC(N)=O)C1(C)C [2,2,3,3-TETRAMETHYLCYCLOPROPANECARBONYLUREA]
ED50 (Mus musculus [18]): 90 mg/kg
ED50 (Rattus norvegicus [19]): 29 mg/kg
ED50 (Rattus norvegicus [20]): 92 mg/kg
selectivity ratio [21]: 18.5

CCC(=O)CCCCCN1C(=O)NC2(C1=O)c1ccccc1-c1ccccc12
Activity (Mus musculus [22]): 100%

CN(C)c1ccc(/C=N/Nc2nnc(-c3ccccc3)nc2Cc2ccc(Cl)cc2)cc1
ED50 (Mus musculus [12]): 46 mg/kg
ED50 (Mus musculus [13]): 83.9 mg/kg
Activity (Mus musculus [14]): 37.3 mg
selectivity ratio [15]: 4.29
selectivity ratio [16]: 7.82

COc1ccc(/C=C2/N=C(c3ccccc3)c3cc([N+](=O)[O-])ccc3NC2=O)cc1O
inhibition (INH) (Mus musculus [23]): 70%

C=CCC(CC(C)C)C(=O)O (racemic)
selectivity ratio [24]: 3.2

O=C1NC(=O)C(c2ccccc2)(c2ccccc2)N1 [PHENYTOIN]
ED50 (Mus musculus [25]): > 300 mg/kg

O=C1Nc2ccc(Cl)cc2C(c2ccccc2)=NC1/N=N/c1ccc(F)cc1 (centres undefined)
Activity (Mus musculus [26]): 100%

CCCC(CCC)C(=O)[O-].[Na+] [VALPROATE SODIUM]
ED50 (Mus musculus [25]): 149 mg/kg
Activity (Mus musculus [22]): 83%

CCOc1ccccc1N1CCN(CCCN2CCCC2=O)CC1
mortality [17]: 25%

CCOc1cc(/C=C2/N=C(c3ccccc3)c3cc([N+](=O)[O-])ccc3NC2=O)ccc1O
inhibition (INH) (Mus musculus [23]): 75%

COc1ccc(C2CC(c3ccc(Cl)cc3)=Nc3ccccc3N2)cc1 (centres undefined)
Activity (Rattus norvegicus [27]): 52%
Time (Rattus norvegicus [28]): 8.5 s

CCCC(CCC)c1nnc(S)n1-c1ccccc1
TD50 [9]: 371 mg/kg

CCCC(CCC)C(=O)N/N=C/c1cc(OC)ccc1OC
TD50 [9]: 457 mg/kg

CC1(C)O[C@H]2CO[C@]3(COS(=O)(=O)N=[N+]=[N-])OC(C)(C)OC3[C@H]2O1 (some centres undefined)
inhibition in vivo at 200 mg/kg (Mus musculus [29]): ≥ 80%

C=C(C)CC(CCC)C(=O)O (racemic)
selectivity ratio [24]: 2.05

O=C1Nc2ccc(Br)cc2C12Nc1ccccc1-c1nc(=O)c(-c3ccccc3)nn12 (centres undefined)
mortality [30]: 30%

CC1(C)O[C@@H]2O[C@@]3(COS(N)(=O)=O)OC(C)(C)OC3[C@@H]2O1 (some centres undefined)
inhibition in vivo at 200 mg/kg (Mus musculus [29]): ≥ 80%

CCCC(CCC)C(=O)N/N=C/c1ccncc1
TD50 [9]: 346 mg/kg
